Activity calls are given as the source filed them. No cut-off for these calls is given here. Where a SMILES comes first, the peptide text is derived from it. Bridges are numbered along the chain shown (N, C = ends).
How the values were obtained:
Homo sapiens [1] = species on record: Homo sapiens; test: Inhibition of LAG-3/FGL1 (unknown origin) protein-protein interaction at 50 uM by TR-FRET assay
ICOS-ICOSL [2] = molecular target: T1, ICOS-ICOSL (Homo sapiens, UniProt O75144+Q9Y6W8); test: (§1) Inhibition of ICOS/ICOSL (unknown origin) interaction by ELISA method; type: protein assay
T1 sequence (O75144 whole entry): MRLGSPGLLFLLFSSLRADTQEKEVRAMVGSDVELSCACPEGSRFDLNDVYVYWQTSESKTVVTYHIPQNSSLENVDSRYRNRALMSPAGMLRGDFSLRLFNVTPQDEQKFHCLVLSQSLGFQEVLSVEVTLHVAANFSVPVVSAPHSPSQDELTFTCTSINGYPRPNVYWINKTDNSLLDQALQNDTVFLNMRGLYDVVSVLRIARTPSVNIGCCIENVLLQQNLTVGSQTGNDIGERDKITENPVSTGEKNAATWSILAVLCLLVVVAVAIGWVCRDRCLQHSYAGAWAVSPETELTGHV
T1 sequence (Q9Y6W8 whole entry): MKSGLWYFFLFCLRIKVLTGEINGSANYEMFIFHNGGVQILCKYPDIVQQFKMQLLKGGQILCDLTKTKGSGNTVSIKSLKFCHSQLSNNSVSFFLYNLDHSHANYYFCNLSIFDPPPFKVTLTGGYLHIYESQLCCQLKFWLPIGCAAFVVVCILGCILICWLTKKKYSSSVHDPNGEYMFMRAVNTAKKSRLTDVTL

[3] = molecular target: T2, Inducible T-cell costimulator (Homo sapiens, UniProt Q9Y6W8); test: Binding affinity to ICOS (unknown origin) assessed as dissociation constant
T2 sequence (Q9Y6W8 whole entry): T1 sequence (Q9Y6W8 whole entry)

Homo sapiens [4] = species on record: Homo sapiens; test: Inhibition of VISTA/VSIG-3 (unknown origin) protein-protein interaction at 50 uM by TR-FRET assay
[5] = Apparent permeability of the compound in human Caco-2 cells across apical to basolateral side; type: ADME, cell-based
ICOS-ICOSL [6] = molecular target: T1, ICOS-ICOSL; test: (§2) Inhibition of ICOS/ICOSL (unknown origin) interaction by TR-FRET assay; type: protein assay
[7] = Stability of the compound in stimulated intestinal fluid assessed as half life at pH 6.5; type: ADME; details: simulated intestinal fluid
Homo sapiens [8] = species on record: Homo sapiens; test: Inhibition of CTLA4/B-7 (unknown origin) protein-protein interaction at 50 uM by TR-FRET assay
[9] = Stability of the compound in stimulated gastric fluid assessed as half life at pH 1.6; type: ADME; details: simulated gastric fluid
Homo sapiens [10] = species on record: Homo sapiens; test: Inhibition of PD-1/PD-L1 (unknown origin) protein-protein interaction at 50 uM by TR-FRET assay
[11] = Stability in human plasma assessed as parent compound remaining measured after 2 hrs; type: ADME, cell-free; details: read-out: Stability
[12] = Stability in rat liver microsomes assessed as half life; type: ADME, Microsome
[13] = Lipophilicity, log D of compound at pH 7.4 by shake-flask method; type: physicochemical; details: buffer
[14] = Apparent permeability of the compound in human Caco-2 cells across basolateral to apical side; type: ADME, cell-based
[15] = molecular target: T3, ICOS-ICOSL (Homo sapiens) (UniProt O75144+Q9Y6W8); test: as §1; type: protein assay
[16] = molecular target: T3, ICOS-ICOSL (Homo sapiens); test: as §2; type: protein assay

inhibition (Homo sapiens [1]) | IC50 (ICOS-ICOSL [2]) [µM] | Kd [3] [µM] | inhibition (Homo sapiens [4]) | Papp A→B [5] [×10⁻⁶ cm/s] | IC50 (ICOS-ICOSL [6]) [µM] | half-life [7] [h] | inhibition (Homo sapiens [8]) | half-life [9] [h] | inhibition (Homo sapiens [10]) | remaining at 2 h [11] [%] | half-life [12] [h] | logD [13] | Papp B→A [14] [×10⁻⁶ cm/s] | inhibition [15] | inhibition [16] | Compound
inactive | 1.87 | 36.7 | inactive | 6.72 | 4.48 | 20.4 | inactive | 6.5 | inactive | 98.2 | 18.3 | 2.94 | 10.8 | – | – | CC(C)C[C@H](NC(=O)[C@@H]1CSSC[C@H](NC(=O)[C@@H](N)Cc2ccc(O)cc2)C(=O)N[C@@H](Cc2ccc(O)cc2)C(=O)N2CCC[C@H]2C(=O)N[C@@H](C(C)C)C(=O)N2CCC[C@H]2C(=O)N[C@@H](Cc2ccc(O)cc2)C(=O)N2CCC[C@H]2C(=O)N2CCC[C@H]2C(=O)N[C@@H](Cc2ccccc2)C(=O)N[C@@H](Cc2ccccc2)C(=O)N[C@@H](CC(C)C)C(=O)N1)C(=O)N[C@@H](Cc1ccccc1)C(=O)N[C@@H](CC(N)=O)C(=O)O (H-YCYPVPYPPFFLCLFN-OH; disulfide 2-13)
– | – | 4.47 | – | – | – | – | – | – | – | – | – | – | – | inactive | inactive | CC[C@H](C)[C@@H]1NC(=O)[C@H](CO)NC(=O)[C@H](Cc2ccc(O)cc2)NC(=O)[C@H](Cc2ccc(O)cc2)NC(=O)[C@@H]2CSSC[C@H](NC(=O)[C@H](CC(C)C)NC(=O)[C@@H]3CCCN3C(=O)[C@@H]3CCCN3C1=O)C(=O)N[C@@H](CC(C)C)C(=O)N1CCC[C@H]1C(=O)N[C@@H](Cc1ccccc1)C(=O)NCC(=O)N[C@@H](CCCNC(=N)N)C(=O)N2 (cyclo(CLPFGRCYYSIPPL); disulfide 1-7)
– | – | – | – | – | 3.68 | – | – | – | – | – | – | – | – | inactive | – | CC(C)C[C@@H]1NC(=O)[C@H](Cc2ccccc2)NC(=O)[C@H](Cc2ccccc2)NC(=O)[C@@H]2CCCN2C(=O)[C@@H]2CCCN2C(=O)[C@H](Cc2ccc(O)cc2)NC(=O)[C@@H]2CCCN2C(=O)[C@H](C(C)C)NC(=O)[C@@H]2CCCN2C(=O)[C@H](Cc2ccc(O)cc2)NC(=O)[C@@H]2CSSC[C@H](NC1=O)C(=O)N[C@@H](CC(C)C)C(=O)N1CCC[C@H]1C(=O)N[C@@H](Cc1ccccc1)C(=O)N[C@@H](Cc1ccc(O)cc1)C(=O)N2 (cyclo(CLPFYCYPVPYPPFFL); disulfide 1-6)

Reference: ChEMBL document CHEMBL5579793, “Design of cyclic peptides as novel inhibitors of ICOS/ICOSL interaction” (Bioorg Med Chem Lett, 2024)
